# In patent US6660742B2, “Compositions and methods of the use thereof achiral analogues of CC-1065 and the duocarmycins” (priority 2000, dated 2003):
# Where “and” joins values, the source holds several entries; their conditions need not be identical. Equal values may be shown once. Read-outs that look alike come from different tables or passages of the source.
# Columns and labels:
# MDA-MB-435 = experiment: NCI screen, MDA-MB-435 (Breast Cancer); assay type: cell-based, human
# Protocol: (§1) The compounds of this invention were also tested against the panel of 60 human cancer cell lines at the National Cancer Institute, Bethesda, Md. […] The cytrotoxicity studies were conducted using a 48 hour exposure, and measuring the optical density of sulforhodamide B-derived color.
# [1] = test system: panel of 60 human cancer cell lines; experiment: NCI in-vitro cytotoxicity screen, whole panel; assay type: cell-based
# M14 = experiment: NCI screen, M14 (Melanoma)
# Protocol: as §1
# EKVX = experiment: NCI screen, EKVX (Non-Small Cell Lung Cancer)
# Protocol: as §1
# SK-OV-3 = experiment: NCI screen, SK-OV-3 (Ovarian Cancer)
# Protocol: as §1
# SF-268 = experiment: NCI screen, SF-268 (CNS Cancer)
# Protocol: (§2) The compounds of this invention were also tested against the panel of 60 human cancer cell lines at the National Cancer Institute, Bethesda, Md. (44). The cytrotoxicity studies were conducted using a 48 hour exposure, and measuring the optical density of sulforhodamide B-derived color.
# OVCAR-8 = experiment: NCI screen, OVCAR-8 (Ovarian Cancer)
# Protocol: as §2
# U251 = experiment: NCI screen, U251 (CNS Cancer)
# Protocol: as §1
# HCT-116 = experiment: NCI screen, HCT-116 (Colon Cancer)
# Protocol: as §1
# UACC-257 = experiment: NCI screen, UACC-257 (Melanoma)
# Protocol: as §1
# MOLT-4 = experiment: NCI screen, MOLT-4 (Leukemia)
# Protocol: as §1
# 786-0 = experiment: NCI screen, 786-0 (Renal Cancer)
# Protocol: as §1
# BT-549 = experiment: NCI screen, BT-549 (Breast Cancer)
# Protocol: as §2
# SW-620 = experiment: NCI screen, SW-620 (Colon Cancer); assay type: cell-based, human
# Protocol: as §1
# MCF7/ADR-RES = experiment: NCI screen, MCF7/ADR-RES (Breast Cancer); assay type: cell-based, human; settings: MCF7/ADR-RES
# Protocol: as §1
# SK-MEL-28 = experiment: NCI screen, SK-MEL-28 (Melanoma)
# Protocol: as §1
# ACHN = assay type: cell-based, human
# SNB-75 = experiment: NCI screen, SNB-75 (CNS Cancer)
# Protocol: as §1
# SF-539 = experiment: NCI screen, SF-539 (CNS Cancer)
# Protocol: as §1
# HCC-2998 = experiment: NCI screen, HCC-2998 (Colon Cancer)
# Protocol: as §1
smiles,measurement,setting,value
"O=C(Nc1cc(O)ccc1CCCl)c1cc2cc(NC(=O)c3cc4ccccc4o3)ccc2[nH]1 [Compound 1, 4-(2-Chloroethyl)-3-[5-(5-benzofuran-2-carboxamido)indole-2-carboxamido]phenol]",GI50,HOP-92,2.62 µM
same,TGI,HOP-92,5.53E−06 Molar
same,Percent Growth,HOP-92; Log10 Concentration −4.0,−92%
same,Percent Growth,HOP-92; Log10 Concentration −8.0,94%
same,GI50,MDA-MB-435,1.89 µM
same,TGI,MDA-MB-435,3.75E−06 Molar
same,Percent Growth,MDA-MB-435; Log10 Concentration −4.0,−94%
same,Percent Growth,MDA-MB-435; Log10 Concentration −6.0,96%
same,range of activity,[1]; 48 hour exposure,micromolar range
same,activity against leukemia cells,[1]; leukemia cells,none of these compounds showed much activity
same,activity against melanoma cells,[1]; melanoma cells,active
same,activity against solid tumors cells,[1]; solid tumors cells,strong activity
same,Percent Growth,M14,−75%
same,GI50,M14; M14,1.49 µM
same,TGI,M14; M14,3.19E−06 Molar
same,Percent Growth,"M14; M14, Log10 Concentration −4.0",−99%
same,Percent Growth,"M14; M14, Log10 Concentration −6.0",76%
same,Percent Growth,"M14; M14, Log10 Concentration −7.0",91%
same,Percent Growth,"M14; M14, Log10 Concentration −8.0",93%
same,GI50,EKVX,1.78 µM
same,TGI,EKVX,4.41E−06 Molar
same,Percent Growth,EKVX; Log10 Concentration −4.0,−80%
same,Percent Growth,EKVX; Log10 Concentration −7.0,96%
same,GI50,NCI-H322M,2.83 µM
same,Percent Growth,NCI-H322M,93%
same,TGI,NCI-H322M,9.60E−06 Molar
same,GI50,SK-OV-3,2.93 µM
same,TGI,SK-OV-3,7.64E−06 Molar
same,Percent Growth,SK-OV-3; Log10 Concentration −4.0,−99%
same,Percent Growth,SK-OV-3; Log10 Concentration −7.0,102%
same,Percent Growth,SF-268,68% and 70% and 88%
same,GI50,SF-268; SF-268,13.4 µM
same,TGI,SF-268; SF-268,2.78E−05 Molar
same,Percent Growth,"SF-268; SF-268, Log10 Concentration −4.0",−88%
same,Percent Growth,"SF-268; SF-268, Log10 Concentration −7.0",88%
same,Percent Growth,OVCAR-8,−61%
same,GI50,OVCAR-8; OVCAR-8,1.32 µM
same,TGI,OVCAR-8; OVCAR-8,3.28E−06 Molar
same,Percent Growth,"OVCAR-8; OVCAR-8, Log10 Concentration −4.0",−63%
same,Percent Growth,"OVCAR-8; OVCAR-8, Log10 Concentration −6.0",65%
same,Percent Growth,"OVCAR-8; OVCAR-8, Log10 Concentration −7.0",94%
same,Percent Growth,"OVCAR-8; OVCAR-8, Log10 Concentration −8.0",94%
same,Percent Growth,U251,77%
same,GI50,U251; U251,2.41 µM
same,TGI,U251; U251,1.23E−05 Molar
same,Percent Growth,"U251; U251, Log10 Concentration −4.0",−71%
same,Percent Growth,"U251; U251, Log10 Concentration −5.0",7%
same,Percent Growth,"U251; U251, Log10 Concentration −7.0",101%
same,Percent Growth,HCT-116,81% and 99%
same,GI50,HCT-116; HCT-116,1.94 µM
same,TGI,HCT-116; HCT-116,5.73E−06 Molar
same,Percent Growth,"HCT-116; HCT-116, Log10 Concentration −4.0",−89%
same,Percent Growth,"HCT-116; HCT-116, Log10 Concentration −5.0",−26%
same,Percent Growth,"HCT-116; HCT-116, Log10 Concentration −7.0",95%
same,GI50,UACC-257,1.88 µM
same,TGI,UACC-257,3.40E−06 Molar
same,Percent Growth,UACC-257; Log10 Concentration −4.0,−97%
same,Percent Growth,UACC-257; Log10 Concentration −7.0,104%
same,Percent Growth,UACC-257; Log10 Concentration −8.0,102%
same,GI50,MOLT-4,1.14 µM
same,Percent Growth,MOLT-4; Log10 Concentration −4.0,4%
same,GI50,786-0,2.62 µM
same,TGI,786-0,1.07E−05 Molar
same,Percent Growth,786-0; Log10 Concentration −4.0,−50%
same,Percent Growth,786-0; Log10 Concentration −5.0,2%
same,Percent Growth,786-0; Log10 Concentration −6.0,85%
same,Percent Growth,786-0; Log10 Concentration −7.0,101%
same,Percent Growth,786-0; Log10 Concentration −8.0,98%
same,Percent Growth,BT-549,110%
same,GI50,BT-549; BT-549,3.6 µM
same,TGI,BT-549; BT-549,2.05E−05 Molar
same,Percent Growth,"BT-549; BT-549, Log10 Concentration −4.0",−20%
same,Percent Growth,"BT-549; BT-549, Log10 Concentration −5.0",9%
same,Percent Growth,"BT-549; BT-549, Log10 Concentration −6.0",101%
same,Percent Growth,"BT-549; BT-549, Log10 Concentration −7.0",103%
same,GI50,SW-620,2.01 µM
same,TGI,SW-620,8.19E−06 Molar
same,Percent Growth,SW-620; Log10 Concentration −4.0,−66%
same,Percent Growth,SW-620; Log10 Concentration −8.0,96%
same,GI50,MCF7/ADR-RES,1.65 µM
same,TGI,MCF7/ADR-RES,3.79E−06 Molar
same,Percent Growth,MCF7/ADR-RES; Log10 Concentration −4.0,−55%
same,Percent Growth,MCF7/ADR-RES; Log10 Concentration −5.0,−58%
same,Percent Growth,MCF7/ADR-RES; Log10 Concentration −6.0,80%
same,Percent Growth,MCF7/ADR-RES; Log10 Concentration −7.0,97%
same,Percent Growth,MCF7/ADR-RES; Log10 Concentration −8.0,93%
same,GI50,SK-MEL-28,2.4 µM
same,TGI,SK-MEL-28,6.10E−06 Molar
same,Percent Growth,SK-MEL-28; Log10 Concentration −4.0,−98%
same,Percent Growth,SK-MEL-28; Log10 Concentration −6.0,97%
same,Percent Growth,SK-MEL-28; Log10 Concentration −8.0,103%
same,GI50,ACHN,1.53 µM
same,TGI,ACHN,5.55E−06 Molar
same,Percent Growth,SNB-75,65% and 56% and 93%
same,GI50,SNB-75; SNB-75,18.6 µM
same,TGI,SNB-75; SNB-75,3.32E−05 Molar
same,Percent Growth,"SNB-75; SNB-75, Log10 Concentration −4.0",−96%
same,GI50,SF-539,1.92 µM
same,TGI,SF-539,4.16E−06 Molar
same,Percent Growth,SF-539; Log10 Concentration −4.0,−100%
same,Percent Growth,SF-539; Log10 Concentration −8.0,92%
same,GI50,HCC-2998,1.76 µM
same,TGI,HCC-2998,3.56E−06 Molar
same,Percent Growth,HCC-2998; Log10 Concentration −4.0,−97%
same,Percent Growth,HCC-2998; Log10 Concentration −7.0,97%
same,Percent Growth,HCC-2998; Log10 Concentration −8.0,96%
